According to the supplement of paper PMC11061612:

Legend:
Test in all cases: Bliss excess, mean over the matrix (fraction); higher = more synergy
[1] = tested on: LU-139 (Small Cell Lung Carcinoma)
Procedure, shortened: (§1)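 Bliss excess equals the observed combination effect minus the expected value EA + EB − EA·EB, where EA and EB are the effects of each agent alone. Combination Emax is the second-highest inhibition within the matrix. Inhibition was scaled from CellTiter-Glo 2.0 luminescence, with 0 set by vehicle wells and 1 by blank wells, after 72 hours of two-drug dosing of cells plated in 1536-well plates.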

[2] = tested on: RKO (Colorectal Carcinoma)
Procedure, shortened: as §1

[3] = tested on: PCI-30 (Head and Neck Carcinoma)
Procedure, shortened: as §1

[4] = tested on: CAPAN-1 (Pancreatic Carcinoma)
Procedure, shortened: as §1

[5] = tested on: NCI-H69 (Small Cell Lung Carcinoma)
Procedure, shortened: as §1

NCI-H28 (Mesothelioma) = tested on: NCI-H28 (Mesothelioma)
Procedure, shortened: as §1

[6] = tested on: EN (Endometrial Carcinoma)
Procedure, shortened: as §1

[7] = tested on: OC-314 (Ovarian Carcinoma)
Procedure, shortened: as §1

[8] = tested on: RT-112 (Bladder Carcinoma)
Procedure, shortened: as §1

[9] = tested on: Hs-633T (Other Solid Carcinomas)
Procedure, shortened: as §1

[10] = tested on: 8305C (Thyroid Gland Carcinoma)
Procedure, shortened: as §1

[11] = tested on: HO-1-u-1 (Oral Cavity Carcinoma)
Procedure, shortened: as §1

[12] = tested on: SW1271 (Small Cell Lung Carcinoma)
Procedure, shortened: as §1

NB14 (Neuroblastoma) = tested on: NB14 (Neuroblastoma)
Procedure, shortened: as §1

[13] = tested on: CAL-54 (Kidney Carcinoma)
Procedure, shortened: as §1

[14] = tested on: SUP-T1 (T-Lymphoblastic Leukemia)
Procedure, shortened: as §1

NCI-H2461 (Mesothelioma) = tested on: NCI-H2461 (Mesothelioma)
Procedure, shortened: as §1

SH-4 (Melanoma) = tested on: SH-4 (Melanoma)
Procedure, shortened: as §1

[15] = tested on: HARA (Squamous Cell Lung Carcinoma)
Procedure, shortened: as §1

NCI-H2795 (Mesothelioma) = tested on: NCI-H2795 (Mesothelioma)
Procedure, shortened: as §1

Row | SMILES | Bliss excess [1] | Bliss excess [2] | Bliss excess [3] | Bliss excess [4] | Bliss excess [5] | Bliss excess (NCI-H28 (Mesothelioma)) | Bliss excess [6] | Bliss excess [7] | Bliss excess [8] | Bliss excess [9] | Bliss excess [10] | Bliss excess [11] | Bliss excess [12] | Bliss excess (NB14 (Neuroblastoma)) | Bliss excess [13] | Bliss excess [14] | Bliss excess (NCI-H2461 (Mesothelioma)) | Bliss excess (SH-4 (Melanoma)) | Bliss excess [15] | Bliss excess (NCI-H2795 (Mesothelioma))
1 | C[C@@H]1COCCN1c1cc(C2([S@](C)(=N)=O)CC2)nc(-c2ccnc3[nH]ccc23)n1 [AZD6738] + C1CC(C1)(C(=O)[O-])C(=O)[O-].N.N.[Pt+2] [Carboplatin] (first compound max 10 µM, 7x7, partner max 10 µM) | 0.0013 | -0.0594 | -0.0362 | -0.0624 | -0.032 | -0.0606 | -0.0335 | -0.03 | -0.0217 | -0.0264 | -0.046 | -0.074 | -0.0547 | -0.0044 | -0.0355 | -0.0298 | -0.05 | -0.057 | -0.0226 | -0.0819
2 | N#Cc1cnc(Nc2cc(NC[C@H]3CNCCO3)c(C(F)(F)F)cn2)cn1 [SRA737] + C=CCn1c(=O)c2cnc(Nc3ccc(N4CCN(C)CC4)cc3)nc2n1-c1cccc(C(C)(C)O)n1 [AZD1775] (first compound max 10 µM, partner max 1 µM) | -0.0015 | 0.0536 | 0.116 | -0.0663 | 0.0231 | 0.0829 | 0.0422 | 0.165 | 0.107 | 0.0888 | 0.0356 | 0.0809 | -0.0045 | 0.0644 | 0.0005 | -0.0003 | 0.0428 | 0.0688 | 0.0442 | 0.0401
3 | N#Cc1cnc(Nc2cc(NC[C@H]3CNCCO3)c(C(F)(F)F)cn2)cn1 [SRA737] + O=c1[nH]cc(F)c(=O)[nH]1 [5-Fluorouracil] (first compound max 10 µM, 7x7, partner max 20 µM) | 0.0169 | 0.0048 | 0.0058 | 0.0479 | -0.0461 | -0.0043 | -0.0338 | 0.114 | 0.0881 | -0.0246 | -0.0326 | -0.0774 | -0.0472 | 0.0321 | -0.0373 | 0.0112 | -0.0256 | -0.0344 | -0.0379 | 0.0744
4 | C[C@@H](Nc1cc(F)cc(F)c1)c1cc(C(=O)N(C)C)cc2c(=O)cc(N3CCOCC3)oc12 [AZD8186] + C1CN(CCC1(C(=O)N[C@@H](CCO)C2=CC=C(C=C2)Cl)N)C3=NC=NC4=C3C=CN4 [AZD5363] (first compound max 10 µM, 7x7, partner max 10 µM) | -0.0299 | 0.0284 | -0.0443 | -0.0755 | -0.0566 | -0.0165 | 0.0157 | 0.0624 | -0.0188 | -0.0205 | -0.0642 | -0.073 | -0.0388 | -0.0318 | -0.0774 | -0.0718 | -0.0449 | -0.0317 | -0.0301 | -0.106
5 | Cc1c2c(nn1C)CSCc1cc(n(C)n1)CSc1cc(c3ccccc3c1)OCCCc1c(C(=O)O)n(C)c3c-2c(Cl)ccc13 [AZD5991] + CS(=O)(=O)CCNCc1ccc(-c2ccc3ncnc(Nc4ccc(OCc5cccc(F)c5)c(Cl)c4)c3c2)o1 [Lapatinib] (first compound max 1 µM, 7x7, partner max 10 µM) | -0.0068 | 0.0196 | 0.0446 | -0.0147 | -0.0745 | 0.0147 | -0.0129 | 0.0453 | 0.0426 | -0.008 | -0.042 | 0.0293 | -0.0749 | 0.0335 | 0.0368 | -0.0863 | -0.0273 | -0.01 | 0.0632 | -0.016
6 | O=C(c1cc(Cc2n[nH]c(=O)c3ccccc23)ccc1F)N1CCN(C(=O)C2CC2)CC1 [Olaparib] + COc1nnc2ccc(N3CCC(c4ccc(OCCN5CCN(C)C(=O)[C@H]5C)cc4)CC3)nn12 [AZD5153] (first compound max 10 µM, 7x7, partner max 1 µM) | -0.0194 | -0.0893 | -0.0144 | -0.0573 | 0.0144 | -0.0529 | -0.0427 | -0.0341 | -0.0332 | 0.0223 | -0.0634 | -0.0022 | -0.0668 | -0.004 | -0.0923 | -0.0512 | -0.118 | -0.11 | -0.0775 | -0.085
7 | O=C(c1cc(Cc2n[nH]c(=O)c3ccccc23)ccc1F)N1CCN(C(=O)C2CC2)CC1 [Olaparib] + Cc1c2c(nn1C)CSCc1cc(n(C)n1)CSc1cc(c3ccccc3c1)OCCCc1c(C(=O)O)n(C)c3c-2c(Cl)ccc13 [AZD5991] (first compound max 10 µM, 7x7, partner max 1 µM) | -0.0263 | -0.0205 | -0.048 | -0.0392 | 0.0008 | -0.0349 | -0.016 | -0.0142 | 0.0048 | -0.0037 | -0.0391 | -0.0224 | -0.0523 | -0.0183 | -0.0272 | -0.0286 | -0.0502 | -0.0412 | -0.0358 | -0.0207
8 | CN(CCO)CC[C@H](CSc1ccccc1)Nc1ccc(S(=O)(=O)NC(=O)c2ccc(N3CCC([C@@H](O)c4ccccc4-c4ccc(Cl)cc4)CC3)cc2)cc1S(=O)(=O)C(F)(F)F [AZD4320] + C[C@@H](Nc1cc(F)cc(F)c1)c1cc(C(=O)N(C)C)cc2c(=O)cc(N3CCOCC3)oc12 [AZD8186] (first compound max 1 µM, 7x7, partner max 3 µM) | -0.0107 | -0.0164 | -0.0503 | -0.0107 | -0.0208 | 0.0474 | -0.0377 | 0.0075 | 0.0735 | 0.0082 | 0.0676 | -0.0242 | -0.0447 | 0.0025 | 0.0533 | -0.0192 | -0.0052 | -0.0042 | 0.0233 | 0.0426
9 | O=C(c1cc(Cc2n[nH]c(=O)c3ccccc23)ccc1F)N1CCN(C(=O)C2CC2)CC1 [Olaparib] + CN(CC[C@H](CSC1=CC=CC=C1)NC2=C(C=C(C=C2)S(=O)(=O)NC(=O)C3=CC=C(C=C3)N4CCC(CC4)[C@H](C5=CC=CC=C5C6=CC=C(C=C6)Cl)O)S(=O)(=O)C(F)(F)F)CCO [AZD4320] (first compound max 10 µM, 7x7, partner max 1 µM) | 0.0154 | -0.0252 | -0.0405 | -0.0347 | 0.0294 | -0.0353 | -0.0184 | -0.0165 | -0.0305 | 0.0017 | -0.0062 | 0.0123 | -0.0291 | 0.0027 | -0.0021 | -0.0301 | -0.0534 | -0.0505 | -0.0379 | -0.0086
10 | C[C@@H]1COCCN1c1cc(C2([S@](C)(=N)=O)CC2)nc(-c2ccnc3[nH]ccc23)n1 [AZD6738] + Nc1ccn([C@@H]2O[C@H](CO)[C@@H](O)C2(F)F)c(=O)n1 [Gemcitabine] (first compound max 10 µM, 7x7, partner max 0.3 µM) | 0.0146 | -0.0088 | 0.0539 | -0.0254 | 0.035 | 0.0086 | 0.0613 | 0.115 | 0.147 | 0.0444 | 0.0252 | 0.061 | 0.004 | 0.04 | 0.0372 | 0.0041 | -0.0436 | -0.0029 | 0.0343 | -0.0533
11 | CN(CCO)CC[C@H](CSc1ccccc1)Nc1ccc(S(=O)(=O)NC(=O)c2ccc(N3CCC([C@@H](O)c4ccccc4-c4ccc(Cl)cc4)CC3)cc2)cc1S(=O)(=O)C(F)(F)F [AZD4320] + Nc1ccn([C@@H]2O[C@H](CO)[C@@H](O)C2(F)F)c(=O)n1 [Gemcitabine] (first compound max 1 µM, 7x7, partner max 0.3 µM) | 0.0388 | -0.0195 | -0.0272 | 0.0166 | -0.0064 | 0.0018 | -0.0382 | 0.0434 | -0.0057 | 0.0434 | 0.072 | 0.0383 | 0.0692 | 0.0314 | -0.0034 | 0.0225 | 0.0285 | 0.0224 | -0.0498 | -0.0094
12 | Cc1cc2ncnn2cc1Nc1ncc2c(n1)n(C1CCOCC1)c(=O)n2C [AZD7648] + COc1cc([C@@H]2c3cc4c(cc3[C@@H](O[C@@H]3O[C@@H]5CO[C@@H](C)O[C@H]5[C@H](O)[C@H]3O)[C@H]3COC(=O)[C@H]23)OCO4)cc(OC)c1O [Etoposide] (first compound max 10 µM, 7x7, partner max 10 µM) | 0.101 | 0.135 | 0.0768 | -0.0034 | 0.0783 | 0.0548 | 0.0565 | 0.152 | 0.17 | 0.174 | -0.0413 | 0.11 | 0.0441 | 0.0704 | 0.0605 | 0.07 | 0.0136 | 0.0744 | 0.105 | -0.0093
13 | C=CCn1c(=O)c2cnc(Nc3ccc(N4CCN(C)CC4)cc3)nc2n1-c1cccc(C(C)(C)O)n1 [AZD1775] + Nc1ccn([C@@H]2O[C@H](CO)[C@@H](O)C2(F)F)c(=O)n1 [Gemcitabine] (first compound max 1 µM, partner max 0.3 µM) | -0.0304 | -0.0367 | 0.0252 | -0.0588 | -0.0754 | -0.0576 | -0.0552 | 0.0576 | 0.148 | 0.0094 | -0.0524 | -0.0446 | -0.0558 |  | -0.0031 | -0.047 | -0.0446 | -0.0092 | 0.0187 | -0.0549
14 | Cc1c2c(nn1C)CSCc1cc(n(C)n1)CSc1cc(c3ccccc3c1)OCCCc1c(C(=O)O)n(C)c3c-2c(Cl)ccc13 [AZD5991] + Nc1ccn([C@@H]2O[C@H](CO)[C@@H](O)C2(F)F)c(=O)n1 [Gemcitabine] (first compound max 1 µM, 7x7, partner max 0.3 µM) | -0.0133 | -0.0368 | -0.0531 | -0.0092 | -0.0178 | -0.061 | -0.0535 | -0.0084 | 0.0012 | -0.0611 | -0.121 | 0.0217 | -0.0354 | -0.0213 |  | -0.0332 | -0.0432 | -0.0246 | -0.0107 | -0.0687
